From paper PMC7557804, “The Anti-Microbial Peptide (Lin-SB056-1)2-K Reduces Pro-Inflammatory Cytokine Release through Interaction with Pseudomonas aeruginosa Lipopolysaccharide” (Antibiotics, 2020) come the findings set out here.

In test [1] the test system is A549 cells. In words: Cytokine production by A549 cells stimulated with whole P. aeruginosa PAO1. It counts as cell-based, Human. Particulars: 4 h, 37 °C, 5% CO2. Here is the method:
The reference strain P. aeruginosa PAO1 (ATCC 15692) was used in this study. For the preparation of stock cultures, bacteria were grown in Tryptone Soy Broth (TSB; Thermo Fisher Scientific, Waltham, MA, USA) until mid-exponential phase, then aliquoted and stored at −80 °C. For the preparation of the inoculum, a volume of 50 μL of the frozen culture was inoculated in 5 mL of TSB, and subsequently incubated for 18 h at 37 °C. […]
In some experiments, the ability of (lin-SB056-1)2-K to inhibit cytokine production by A549 cells stimulated with whole P. aeruginosa (PAO1 strain) was assessed. […]
Different pro-inflammatory cytokines (i.e., IL-1β, IL-6, IL-8 and TNF-α) were quantified in cell culture supernatants through a bead-based multiplex immunoassay (LEGENDplex multi-analyte flow assay kit; BioLegend, San Diego, CA, USA) following manufacturer’s instructions. […] Following consecutive washing steps, the beads were resuspended in the LEGENDplex wash buffer and the samples were analyzed by flow cytometry (BD Accuri C6 flow cytometer; BD Biosciences, Mountain View, CA, United States). Data were acquired with the BD Accuri C6 software (BD Biosciences) (300 events per analyte) and analyzed with the LEGENDplex software (BioLegend). […]

Test [2] can be described thus: BODIPY TR cadaverine (BC) fluorescent displacement assay, LPS binding. The arrangement: species or system P. aeruginosa. Particulars: 50 mM Tris-HCl, pH 7.4, 25 °C. Here is the method: Measurement of the ability of lin-SB056-1 and its dendrimeric derivative to bind P. aeruginosa serotype 10 LPS (Sigma-Aldrich) in vitro was performed by a fluorescent displacement assay using the BODIPY TR cadaverine (BC) probe (5-(((4-(4,4-difluoro-5-(2-thienyl)-4-bora-3a,4a-diaza-s-indacene-3-yl)phenoxy)acetyl)amino)pentylamine, hydrochloride); Thermo Fisher Scientific), as described elsewhere. BC binds to LPS by recognizing the lipid A portion and the probe fluorescence is quenched. When a peptide able to interact with LPS is added, BC is displaced from the complex and its fluorescence increases. LPS binding assays were carried out in 50 mM Tris-HCl buffer, pH 7.4. Aliquots of the peptides at a final concentration of 0.1 μM were successively added to a cuvette containing the LPS/BC complex (10 µg/mL P. aeruginosa LPS and 10 µM BC). Fluorescence measurements were performed with a Perkin-Elmer LS 55B spectrofluorometer (Perkin-Elmer, Waltham, MA, USA) using a thermostated (25 °C) cuvette apparatus (excitation: 580 nm; emission: 620 nm).

Regarding “[KWKIRVRLSA]2-K [(lin-SB056-1)2-K, dendrimeric derivative of lin-SB056-1]”, the “reduction in IL-6 levels” value in test [1] (9.6 μM peptide, PAO1 fixed with 4% paraformaldehyde, 5 × 10^6 CFU/well, statistically significant, mean of at least three independent experiments) is “up to 70%”. In addition, the “effect on IL-8 release” value in test [1] (9.6 and 19.25 μM peptide, fixed PAO1 5 × 10^6 CFU/well) is “no evident effect”. The “LPS-binding affinity compared to monomeric form” value in test [2] (BC displacement) is “significantly greater affinity”. In addition, in test [2] (P. aeruginosa serotype 10 LPS 10 µg/mL, BC 10 µM, excitation 580 nm, emission 620 nm, mean of three independent experiments, SD not exceeding 5%), the “ED50 (Effective Displacement; peptide concentration displacing half of the BC)” value is listed as “approximately 0.4 µM”.
